± gives the expanded uncertainty stated by the source.
Test: xn = mol fraction of the nth substance listed
Conditions: Liquid; for speed of sound: Frequency=3 MHz, Pulse-echo method; for mass density: Vibrating tube method

CCCCCCCCCCCC [dodecane] + O=C=O
Conditions	mass density, 303.15 K [kg/m3]	mass density, 313.15 K [kg/m3]	speed of sound, 303.15 K [m/s]	speed of sound, 313.15 K [m/s]
10000 kPa, x2 = 0	748.5 ± 0.8	741.6 ± 0.8	1318.5 ± 1.8	1281.7 ± 1.8
10000 kPa, x2 = 0.2032	–	–	1245.6 ± 1.7	1209.7 ± 1.8
10000 kPa, x2 = 0.205	756.3 ± 0.7	748.8 ± 0.7	–	–
10000 kPa, x2 = 0.3989	–	–	1152.2 ± 1.3	1114.6 ± 1.8
10000 kPa, x2 = 0.4	767.4 ± 0.6	758.7 ± 0.6	–	–
10000 kPa, x2 = 0.6007	–	–	1011.6 ± 1.5	969.6 ± 1.9
10000 kPa, x2 = 0.6008	784.3 ± 0.6	773.3 ± 0.6	–	–
10000 kPa, x2 = 0.7497	802.5 ± 0.6	786.6 ± 0.6	–	–
10000 kPa, x2 = 0.7498	–	–	845.5 ± 1.5	793.2 ± 1.9
10000 kPa, x2 = 0.8528	–	–	680.5 ± 1.6	630 ± 1.6
10000 kPa, x2 = 0.853	815.6 ± 0.5	790.9 ± 0.8	–	–
10000 kPa, x2 = 0.9348	817.8 ± 0.6	771.4 ± 0.9	–	–
10000 kPa, x2 = 0.9771	801 ± 1.1	721.2 ± 1.7	–	–
10000 kPa, x2 = 0.9877	790.6 ± 1.4	689.4 ± 2.4	–	–
20000 kPa, x2 = 0	755.1 ± 0.9	748.5 ± 0.9	1372.4 ± 1.8	1337.9 ± 1.8
20000 kPa, x2 = 0.2032	–	–	1304.1 ± 1.7	1269.6 ± 1.8
20000 kPa, x2 = 0.205	763.6 ± 0.8	756.5 ± 0.8	–	–
20000 kPa, x2 = 0.3989	–	–	1214.9 ± 1.5	1180.3 ± 1.7
20000 kPa, x2 = 0.4	776.3 ± 0.7	768.1 ± 0.7	–	–
20000 kPa, x2 = 0.6007	–	–	1084.4 ± 1.4	1046.4 ± 1.7
20000 kPa, x2 = 0.6008	796.3 ± 0.7	786.1 ± 0.6	–	–
20000 kPa, x2 = 0.7497	820.5 ± 0.6	806.5 ± 0.6	–	–
20000 kPa, x2 = 0.7498	–	–	937 ± 1.4	893.3 ± 1.7
20000 kPa, x2 = 0.8528	–	–	800.1 ± 1.5	751.2 ± 1.7
20000 kPa, x2 = 0.853	844.1 ± 0.6	824.1 ± 0.5	–	–
20000 kPa, x2 = 0.9348	868.5 ± 0.5	838.9 ± 0.6	–	–
20000 kPa, x2 = 0.9771	883.1 ± 0.6	842 ± 0.7	–	–
20000 kPa, x2 = 0.9877	887.1 ± 0.6	841.4 ± 0.8	–	–
30000 kPa, x2 = 0	761.3 ± 1	754.8 ± 0.9	1421.4 ± 1.8	1389.6 ± 1.8
30000 kPa, x2 = 0.2032	–	–	1356.4 ± 1.8	1322.9 ± 1.7
30000 kPa, x2 = 0.205	770.5 ± 0.9	763.6 ± 0.8	–	–
30000 kPa, x2 = 0.3989	–	–	1272 ± 1.6	1238.8 ± 1.7
30000 kPa, x2 = 0.4	784.3 ± 0.8	776.4 ± 0.7	–	–
30000 kPa, x2 = 0.6007	–	–	1147.4 ± 1.4	1112.9 ± 1.6
30000 kPa, x2 = 0.6008	806.8 ± 0.7	797.2 ± 0.7	–	–
30000 kPa, x2 = 0.7497	835.2 ± 0.6	822.5 ± 0.6	–	–
30000 kPa, x2 = 0.7498	–	–	1010.4 ± 1.4	971.4 ± 1.6
30000 kPa, x2 = 0.8528	–	–	885.8 ± 1.5	843.1 ± 1.5
30000 kPa, x2 = 0.853	865.6 ± 0.6	847.6 ± 0.6	–	–
30000 kPa, x2 = 0.9348	902.4 ± 0.6	877.6 ± 0.5	–	–
30000 kPa, x2 = 0.9771	929.5 ± 0.6	897.3 ± 0.6	–	–
30000 kPa, x2 = 0.9877	937.7 ± 0.7	902.7 ± 0.6	–	–
40000 kPa, x2 = 0	766.9 ± 1	760.8 ± 1	1468.5 ± 1.9	1436.8 ± 1.8
40000 kPa, x2 = 0.2032	–	–	1404.4 ± 1.7	1373.3 ± 1.7
40000 kPa, x2 = 0.205	776.8 ± 0.9	770.3 ± 0.9	–	–
40000 kPa, x2 = 0.3989	–	–	1323 ± 1.6	1291 ± 1.7
40000 kPa, x2 = 0.4	791.6 ± 0.8	784.2 ± 0.8	–	–
40000 kPa, x2 = 0.6007	–	–	1204.4 ± 1.5	1170.9 ± 1.7
40000 kPa, x2 = 0.6008	816 ± 0.7	807.2 ± 0.7	–	–
40000 kPa, x2 = 0.7497	847.6 ± 0.6	836.1 ± 0.6	–	–
40000 kPa, x2 = 0.7498	–	–	1073.3 ± 1.4	1037.1 ± 1.6
40000 kPa, x2 = 0.8528	–	–	955.4 ± 1.4	917.2 ± 1.5
40000 kPa, x2 = 0.853	883.1 ± 0.7	866.6 ± 0.6	–	–
40000 kPa, x2 = 0.9348	928.1 ± 0.6	906.5 ± 0.6	–	–
40000 kPa, x2 = 0.9771	963.1 ± 0.6	935.9 ± 0.6	–	–
40000 kPa, x2 = 0.9877	973.9 ± 0.7	944.5 ± 0.7	–	–
50000 kPa, x2 = 0	772 ± 1	766.3 ± 1.1	1512.3 ± 1.9	1481.5 ± 1.9
50000 kPa, x2 = 0.2032	–	–	1449.9 ± 1.8	1419.2 ± 1.8
50000 kPa, x2 = 0.205	782.5 ± 1	776.4 ± 1	–	–
50000 kPa, x2 = 0.3989	–	–	1370.3 ± 1.6	1339.9 ± 1.7
50000 kPa, x2 = 0.4	798.2 ± 0.9	791.2 ± 0.9	–	–
50000 kPa, x2 = 0.6007	–	–	1256 ± 1.5	1224.3 ± 1.7
50000 kPa, x2 = 0.6008	824.4 ± 0.8	816.1 ± 0.8	–	–
50000 kPa, x2 = 0.7497	858.7 ± 0.6	848 ± 0.6	–	–
50000 kPa, x2 = 0.7498	–	–	1128.9 ± 1.4	1095.2 ± 1.6
50000 kPa, x2 = 0.8528	–	–	1015.3 ± 1.4	979.7 ± 1.4
50000 kPa, x2 = 0.853	898.1 ± 0.7	882.5 ± 0.7	–	–
50000 kPa, x2 = 0.9348	950.3 ± 0.6	929.7 ± 0.6	–	–
50000 kPa, x2 = 0.9771	990.1 ± 0.7	965.6 ± 0.6	–	–
50000 kPa, x2 = 0.9877	1002.9 ± 0.8	976.7 ± 0.7	–	–
60000 kPa, x2 = 0	776.8 ± 1.1	771.5 ± 1.1	1553.7 ± 1.9	1524.2 ± 1.9
60000 kPa, x2 = 0.2032	–	–	1492.5 ± 1.8	1462.4 ± 1.8
60000 kPa, x2 = 0.205	787.9 ± 1	782.1 ± 1	–	–
60000 kPa, x2 = 0.3989	–	–	1414.9 ± 1.6	1385.2 ± 1.7
60000 kPa, x2 = 0.4	804.4 ± 0.9	797.6 ± 0.9	–	–
60000 kPa, x2 = 0.6007	–	–	1303.2 ± 1.5	1272.9 ± 1.7
60000 kPa, x2 = 0.6008	832.1 ± 0.8	824.2 ± 0.8	–	–
60000 kPa, x2 = 0.7497	868.7 ± 0.7	858.7 ± 0.7	–	–
60000 kPa, x2 = 0.7498	–	–	1179.5 ± 1.4	1147 ± 1.5
60000 kPa, x2 = 0.8528	–	–	1068.3 ± 1.4	1034.9 ± 1.4
60000 kPa, x2 = 0.853	911.4 ± 0.8	896.4 ± 0.7	–	–
60000 kPa, x2 = 0.9348	967.4 ± 0.7	949.4 ± 0.6	–	–
60000 kPa, x2 = 0.9771	1012.8 ± 0.7	990.3 ± 0.7	–	–
60000 kPa, x2 = 0.9877	1027.1 ± 0.8	1003.1 ± 0.8	–	–
70000 kPa, x2 = 0	781.4 ± 1.1	776.4 ± 1.1	1593.3 ± 2	1564.6 ± 1.9
70000 kPa, x2 = 0.2032	–	–	1532.6 ± 1.8	1503.9 ± 1.8
70000 kPa, x2 = 0.205	793.2 ± 1	787.4 ± 1	–	–
70000 kPa, x2 = 0.3989	–	–	1456.7 ± 1.7	1427.5 ± 1.8
70000 kPa, x2 = 0.4	810.2 ± 0.9	803.6 ± 0.9	–	–
70000 kPa, x2 = 0.6007	–	–	1346.4 ± 1.5	1317.9 ± 1.7
70000 kPa, x2 = 0.6008	839.3 ± 0.8	831.6 ± 0.8	–	–
70000 kPa, x2 = 0.7497	878 ± 0.8	868.2 ± 0.7	–	–
70000 kPa, x2 = 0.7498	–	–	1225.4 ± 1.4	1195.2 ± 1.6
70000 kPa, x2 = 0.8528	–	–	1116.7 ± 1.5	1084.8 ± 1.4
70000 kPa, x2 = 0.853	923.3 ± 0.8	908.7 ± 0.8	–	–
70000 kPa, x2 = 0.9348	983.5 ± 0.7	966.6 ± 0.7	–	–
70000 kPa, x2 = 0.9771	1032.6 ± 0.8	1011.6 ± 0.7	–	–
70000 kPa, x2 = 0.9877	1048.1 ± 0.8	1025.8 ± 0.8	–	–

— the NIST ThermoML archive (doi:10.1021/acs.jced.9b00311)
